Source: US20260250290A1 (BRISTOL-MYERS SQUIBB COMPANY, priority 2023, published 2026)
pIC50: −log10 of the molar value. Where a name gives a salt, the structure may show the parent alone.

Each compound was assayed against T1, full length SGK1 (Homo sapiens, UniProt O00141) (assay: SGK1 inhibition Assay A (Caliper LabChip electrophoretic separation of fluorescent peptide substrate and phosphorylated product)). Conditions: Assay A; 20 μM ATP, 40 min incubation; read-out: SGK1 IC50.
T1 construct: 125 μM full length SGK1 (Life Technologies Part #PR7358A); purchased Life Technologies PR7358A
T1 sequence (O00141 1-431): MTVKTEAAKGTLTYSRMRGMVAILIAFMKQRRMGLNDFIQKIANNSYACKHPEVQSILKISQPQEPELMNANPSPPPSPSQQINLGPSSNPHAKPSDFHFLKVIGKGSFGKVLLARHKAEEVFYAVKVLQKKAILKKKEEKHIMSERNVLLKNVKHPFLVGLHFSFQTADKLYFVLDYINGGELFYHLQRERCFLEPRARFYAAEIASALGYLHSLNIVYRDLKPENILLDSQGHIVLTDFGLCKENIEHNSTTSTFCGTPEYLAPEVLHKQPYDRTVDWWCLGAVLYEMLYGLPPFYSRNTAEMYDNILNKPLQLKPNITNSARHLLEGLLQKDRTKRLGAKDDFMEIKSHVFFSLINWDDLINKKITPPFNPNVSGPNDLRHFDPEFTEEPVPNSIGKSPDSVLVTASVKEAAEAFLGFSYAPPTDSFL
Assay type: biochemical

SMILES	pIC50
Nc1ncnn2c(-c3ccc(N4CCOCC4)cc3)cc(N3CCC[C@@H](NC(=O)c4ccc(Cl)s4)C3)c12 [Example 223, (R)-N-(1-(4-amino-7-(4-morpholinophenyl)pyrrolo [2,1-f][1,2,4]triazin-5-yl)piperidin-3-yl)-5-chlorothiophene-2-carboxamide, TFA]	6.70
COCCNC(=O)c1ccc(-c2cc(N3CCC[C@@H](NC(=O)c4ccc(Cl)s4)C3)c3c(N)ncnn23)cc1 [Example 224, (R)-N-(1-(4-amino-7-(4-((2-methoxyethyl)carbamoyl)phenyl)pyrrolo[2,1-f][1,2,4]triazin-5-yl)piperidin-3-yl)-5-chlorothiophene-2-carboxamide]	7.96
Nc1ncnn2c(-c3ccc(OC(F)F)cc3)cc(N3CCC[C@@H](NC(=O)c4ccc(Cl)s4)C3)c12 [Example 225, (R)-N-(1-(4-amino-7-(4-(difluoromethoxy)phenyl)pyrrolo [2,1-f][1,2,4]triazin-5-yl)piperidin-3-yl)-5-chlorothiophene-2-carboxamide, TFA]	7.82
CS(=O)(=O)c1ccc(-c2cc(N3CCC[C@@H](NC(=O)c4ccc(Cl)s4)C3)c3c(N)ncnn23)cn1 [Example 226, N-[(3R)-1-[4-amino-7-(6-methanesulfonylpyridin-3-yl)pyrrolo[2,1-f][1,2,4]triazin-5-yl]piperidin-3-yl]-5-chlorothiophene-2-carboxamide]	8.70
COc1c(-c2cc(N3CCC[C@@H](NC(=O)c4ccc(Cl)s4)C3)c3c(N)ncnn23)ccnc1F [Example 227]	7.74
Nc1ncnn2c(-c3ccc(S(=O)(=O)C4CC4)cc3)cc(N3CCC[C@@H](NC(=O)c4ccc(Cl)s4)C3)c12 [Example 228, N-[(3R)-1-{4-amino-7-[4-(cyclopropanesulfonyl)phenyl]pyrrolo[2,1-f][1,2,4]triazin-5-yl}piperidin-3-yl]-5-chlorothiophene-2-carboxamide, TFA]	8.22
Nc1ncnn2c(-c3cccc(OC(F)F)c3)cc(N3CCC[C@@H](NC(=O)c4ccc(Cl)s4)C3)c12 [Example 229]	7.34
Nc1ncnn2c(-c3ccco3)cc(N3CCC[C@@H](NC(=O)c4ccc(Cl)s4)C3)c12 [Example 230]	7.68
Nc1ncnn2c(-c3cc(F)nc(F)c3)cc(N3CCC[C@@H](NC(=O)c4ccc(Cl)s4)C3)c12 [Example 231]	7.92
COc1cc(-c2cc(N3CCC[C@@H](NC(=O)c4ccc(Cl)s4)C3)c3c(N)ncnn23)cc(C(F)(F)F)n1 [Example 232, N-[(3R)-1-{4-amino-7-[2-methoxy-6-(trifluoromethyl)pyridin-4-yl]pyrrolo[2,1-f][1,2,4]triazin-5-yl}piperidin-3-yl]-5-chlorothiophene-2-carboxamide]	6.79
Cc1cnc(F)cc1-c1cc(N2CCC[C@@H](NC(=O)c3ccc(Cl)s3)C2)c2c(N)ncnn12 [Example 233]	7.48
Nc1ncnn2c(-c3cccc(Cl)c3)cc(N3CCC[C@@H](NC(=O)c4ccc(Cl)s4)C3)c12 [Example 234]	7.19
Nc1ncnn2c(-c3ccc(Cl)cc3)cc(N3CCC[C@@H](NC(=O)c4ccc(Cl)s4)C3)c12 [Example 235]	7.43
Nc1ncnn2c(-c3ccc(Cl)nc3)cc(N3CCC[C@@H](NC(=O)c4ccc(Cl)s4)C3)c12 [Example 236]	7.72
COC(=O)c1ccc(-c2cc(N3CCC[C@@H](NC(=O)c4ccc(Cl)s4)C3)c3c(N)ncnn23)n1C [Example 238, methyl 5-{4-amino-5-[(3R)-3-(5-chlorothiophene-2-amido)piperidin-1-yl]pyrrolo[2,1-f] [1,2,4]triazin-7-yl}-1-methyl-1H-pyrrole-2-carboxylate]	7.04
Nc1ncnn2c(C3=CCC(F)(F)CC3)cc(N3CCC[C@@H](NC(=O)c4ccc(Cl)s4)C3)c12 [Example 239]	7.37
CC(O)c1cccc(-c2cc(N3CCC[C@@H](NC(=O)c4ccc(Cl)s4)C3)c3c(N)ncnn23)c1 (stereo partly drawn) [Example 240, N-[(3R)-1-{4-amino-7-[3-(1-hydroxyethyl)phenyl]pyrrolo[2,1-f][1,2,4]triazin-5-yl}piperidin-3-yl]-5-chlorothiophene-2-carboxamide]	7.85
N#Cc1ccc(-c2cc(N3CCC[C@@H](NC(=O)c4ccc(Cl)s4)C3)c3c(N)ncnn23)cn1 [Example 241]	9.52

SMILES	pIC50
CNC(=O)c1ccc(-c2cc(N3CCC[C@@H](NC(=O)c4ccc(Cl)s4)C3)c3c(N)ncnn23)cn1 [Example 242, (R)-5-(4-amino-5-(3-(5-chlorothiophene-2-carboxamido)piperidin-1-yl)pyrrolo[2,1-f][1,2,4]triazin-7-yl)-N-methylpicolinamide]	8.30
N#Cc1ccc(-c2cc(N3CCC[C@@H](NC(=O)c4ccc(Cl)s4)C3)c3c(N)ncnn23)cc1F [Example 243, (R)-N-(1-(4-amino-7-(4-cyano-3-fluorophenyl)pyrrolo[2,1-f][1,2,4]triazin-5-yl)piperidin-3-yl)-5-chlorothiophene-2-carboxamide, TFA]	9.00
Nc1ncnn2c(-c3ccc4nnnn4c3)cc(N3CCC[C@@H](NC(=O)c4ccc(Cl)s4)C3)c12 [Example 244, (R)-N-(1-(4-amino-7-(tetrazolo[1,5-a]pyridin-6-yl)pyrrolo[2,1-f][1,2,4]triazin-5-yl)piperidin-3-yl)-5-chlorothiophene-2-carboxamide]	9.00
Nc1ncnn2c(-c3ccc(-n4cnnn4)c(F)c3)cc(N3CCC[C@@H](NC(=O)c4ccc(Cl)s4)C3)c12 [Example 245, (R)-N-(1-(4-amino-7-(3-fluoro-4-(1H-tetrazol-1-yl)phenyl)pyrrolo[2,1-f][1,2,4]triazin-5-yl)piperidin-3-yl)-5-chlorothiophene-2-carboxamide]	9.00
Nc1ncnn2c(-c3cnc4ncnn4c3)cc(N3CCC[C@@H](NC(=O)c4ccc(Cl)s4)C3)c12 [Example 246]	7.89
Nc1ncnn2c(-c3ccc4ncnn4c3)cc(N3CCC[C@@H](NC(=O)c4ccc(Cl)s4)C3)c12 [Example 247]	7.92
Nc1ncnn2c(-c3ccc(C(F)F)nc3)cc(N3CCC[C@@H](NC(=O)c4ccc(Cl)s4)C3)c12 [Example 248, (R)-N-(1-(4-amino-7-(6-(difluoromethyl)pyridin-3-yl)pyrrolo[2,1-f][1,2,4]triazin-5-yl)piperidin-3-yl)-5-chlorothiophene-2-carboxamide, TFA]	8.52
Nc1ncnn2c(-c3ccc(-n4cnnn4)cc3)cc(N3CCC[C@@H](NC(=O)c4ccc(Cl)s4)C3)c12 [Example 249, (R)-N-(1-(7-(4-(1H-tetrazol-1-yl)phenyl)-4-aminopyrrolo[2,1-f][1,2,4]triazin-5-yl)piperidin-3-yl)-5-chlorothiophene-2-carboxamide, TFA]	9.00
N#Cc1ncn(-c2ccc(-c3cc(N4CCC[C@@H](NC(=O)c5ccc(Cl)s5)C4)c4c(N)ncnn34)cn2)n1 [Example 250, (R)-N-(1-(4-amino-7-(6-(3-cyano-1H-1,2,4-triazol-1-yl)pyridin-3-yl)pyrrolo[2,1-f][1,2,4]triazin-5-yl)piperidin-3-yl)-5-chlorothiophone-2-carboxamide, TFA]	8.52
Nc1ncnn2c(-c3ccc(-n4cncn4)nc3)cc(N3CCC[C@@H](NC(=O)c4ccc(Cl)s4)C3)c12 [Example 251, (R)-N-(1-(7-(6-(1H-1,2,4-triazol-1-yl)pyridin-3-yl)-4-aminopyrrolo[2,1-f][1,2,4]triazin-5-yl)piperidin-3-yl)-5-chlorothiophene-2-carboxamide, TFA]	9.00
Nc1ncnn2c(-c3ccc4nncn4c3)cc(N3CCC[C@@H](NC(=O)c4ccc(Cl)s4)C3)c12 [Example 252]	8.40
Nc1ncnn2c(-c3ccn4nnnc4c3)cc(N3CCC[C@@H](NC(=O)c4ccc(Cl)s4)C3)c12 [Example 253, (R)-N-(1-(4-amino-7-(tetrazolo[1,5-a]pyridin-7-yl)pyrrolo[2,1-f][1,2,4]triazin-5-yl)piperidin-3-yl)-5-chlorothiophene-2-carboxamide]	8.70
Cc1nnc2ccc(-c3cc(N4CCC[C@@H](NC(=O)c5ccc(Cl)s5)C4)c4c(N)ncnn34)cn12 [Example 254]	7.64
CC(=O)N1CC=C(c2cc(N3CCC[C@@H](NC(=O)c4ccc(C)s4)C3)c3c(N)ncnn23)C1 [Example 255, (R)—N-(1-(7-(1-acetyl-2,5-dihydro-1H-pyrrol-3-yl)-4-aminopyrrolo[2,1-f][1,2,4]triazin-5-yl)piperidin-3-yl)-5-methylthiophene-2-carboxamide]	8.00
COc1cc(C(=O)N[C@@H]2CCCN(c3cc(C4=CCN(C(C)=O)C4)n4ncnc(N)c34)C2)sn1 [Example 256, (R)—N-(1-(7-(1-acetyl-2,5-dihydro-1H-pyrrol-3-yl)-4-aminopyrrolo[2,1-f][1,2,4]triazin-5-yl)piperidin-3-yl)-3-methoxyisothiazole-5-carboxamide]	9.30
CC(=O)N1CC=C(c2cc(N3CCC[C@@H](NC(=O)c4cccc(-n5cnnc5)c4)C3)c3c(N)ncnn23)C1 [Example 257, (R)—N-(1-(7-(1-acetyl-2,5-dihydro-1H-pyrrol-3-yl)-4-aminopyrrolo[2,1-f][1,2,4]triazin-5-yl)piperidin-3-yl)-3-(4H-1,2,4-triazol-4-yl)benzamide, TFA]	7.19
COc1cnccc1C(=O)N[C@@H]1CCCN(c2cc(C3=CCN(C(C)=O)C3)n3ncnc(N)c23)C1 [Example 258, (R)—N-(1-(7-(1-acetyl-2,5-dihydro-1H-pyrrol-3-yl)-4-aminopyrrolo[2,1-f][1,2,4]triazin-5-yl)piperidin-3-yl)-3-methoxyisonicotinamide]	7.17
